Test [1] has as its system Plasmodium falciparum. The test can be described thus: Antiplasmodial activity against chloroquine-resistant Plasmodium falciparum W2 infected in human type A-positive RBC assessed as inhibition of parasite LDH activity after 72 hrs by spectrophotometric analysis. It is filed as functional, organism-based. The note with it: W2, 72 h.
Test [2] deals with Plasmodium falciparum. The test is described as follows: Antiplasmodial activity against chloroquine-sensitive Plasmodium falciparum D10 infected in human type A-positive RBC assessed as inhibition of parasite LDH activity after 72 hrs by spectrophotometrically. It is filed as functional, organism-based. To be noted: D10, 72 h.

Each structure is given as a SMILES string. A value given as a limit tells only on which side of the number the result lay.

Broadly, the IC50 is the concentration at which inhibition is half-maximal. In the case of `CCC(CC)C[C@@]1(C)C[C@@H](CC)[C@@H](CC(=O)OC)OO1`, the results for the IC50 in the test on Plasmodium falciparum [1] and with Plasmodium falciparum [2] were 0.64 µM and 0.89 µM, respectively.
With `CCC(CC)C[C@]1(C)C[C@@H](CC)[C@@H](CC(=O)OC)OO1`, the IC50 turned out to be 0.87 µM in the test on Plasmodium falciparum [1] and 2.4 µM in the test with Plasmodium falciparum [2].
As for `CCC(CC)C[C@@]1(C)C[C@@H](CC)[C@@H]([C@H](O)CO)OO1`, the values for the IC50 in the test on Plasmodium falciparum [1] and in the test with Plasmodium falciparum [2] were 0.84 µM and 1.2 µM, respectively.
Consider `CCC(CC)C[C@]1(C)C[C@@H](CC)[C@@H]([C@H](O)CO)OO1`, for which the IC50 with Plasmodium falciparum [1] came out at 1.3 µM; in the test with Plasmodium falciparum [2], 2.4 µM.
Turning to `CC[C@@H]1CC(C)(C)OO[C@@H]1[C@H](O)CO`, the IC50 in the test with Plasmodium falciparum [1] and in the test with Plasmodium falciparum [2] was greater than 10 µM each time.
Consider `CC[C@@H]1CC(C)(C)OO[C@@H]1[C@H](O)COC(C)=O`, for which the IC50 in the test on Plasmodium falciparum [1] and with Plasmodium falciparum [2] was greater than 10 µM each time.
On to `CCCCC1(C)C[C@]2(C)CCO[C@@H]2OO1` (mixture of isomers), for which the values for the IC50 with Plasmodium falciparum [1] and with Plasmodium falciparum [2] were 1.4 µM and 2.9 µM, respectively.
Consider `CCCCCC1(C)C[C@]2(C)CCO[C@@H]2OO1` (mixture of isomers), for which the figures for the half-maximal inhibitory concentration (IC50) in the test with Plasmodium falciparum [1] and in the test on Plasmodium falciparum [2] were 1.5 µM and 2.9 µM, respectively.
`CCC(CC)CC1(C)C[C@]2(C)CCO[C@@H]2OO1` (mixture of isomers): the IC50 came out at 0.39 µM with Plasmodium falciparum [1] and 0.76 µM in the test with Plasmodium falciparum [2].
As for `CC1(CC2CCCC2)C[C@]2(C)CCO[C@@H]2OO1` (mixture of isomers), the IC50 with Plasmodium falciparum [1] stood at 0.34 µM; in the test on Plasmodium falciparum [2] it was 0.55 µM.
The corresponding values for `CC1(CC2CCCCC2)C[C@]2(C)CCO[C@@H]2OO1` (mixture of isomers) are 0.36 µM and 0.49 µM.
`CC1(CC2C3CC4CC(C3)CC2C4)C[C@]2(C)CCO[C@@H]2OO1` (mixture of isomers): the IC50 with Plasmodium falciparum [1] turned out to be 0.15 µM; with Plasmodium falciparum [2], 0.23 µM.
Regarding `CCCCC1(C)C[C@@H]2CCO[C@@H]2OO1` (mixture of isomers), the IC50 in the test on Plasmodium falciparum [1] and in the test with Plasmodium falciparum [2] was greater than 10 µM throughout.
For `CCCCCC1(C)C[C@@H]2CCO[C@@H]2OO1` (mixture of isomers), the IC50 in the test on Plasmodium falciparum [1] and in the test with Plasmodium falciparum [2] was greater than 10 µM throughout.
Regarding `CCC(CC)CC1(C)C[C@@H]2CCO[C@@H]2OO1` (mixture of isomers), the half-maximal inhibitory concentration (IC50) in the test on Plasmodium falciparum [1] was 8.6 µM; in the test on Plasmodium falciparum [2], greater than 10 µM.
For the compound `CC(C)c1ccccc1[C@H]1C[C@]2(C)CCO[C@@H]2OO1` (racemic), the IC50 in the test with Plasmodium falciparum [1] stood at 4.6 µM; in the test with Plasmodium falciparum [2], 8.3 µM.
As for `CC1(C)C[C@]2(C)CCO[C@@H]2OO1` (racemic), the IC50 in the test with Plasmodium falciparum [1] and with Plasmodium falciparum [2] was greater than 10 µM throughout.
Regarding `CC[C@@]12CCO[C@@H]1OOC(C)(C)C2` (racemic), the IC50 with Plasmodium falciparum [1] and in the test with Plasmodium falciparum [2] was greater than 10 µM throughout.
As to `CC(C)C[C@@]12CCO[C@@H]1OOC(C)(C)C2` (racemic), the IC50 in the test on Plasmodium falciparum [1] and in the test on Plasmodium falciparum [2] was greater than 10 µM each time.
As for `C[C@@]12CCO[C@@H]1OO[C@@H](c1ccccc1)C2` (racemic), the IC50 in the test with Plasmodium falciparum [1] and in the test with Plasmodium falciparum [2] was greater than 20 µM in each case.
For `Cc1ccccc1[C@H]1C[C@]2(C)CCO[C@@H]2OO1` (racemic), the concentration for half-maximal inhibition (IC50) in the test with Plasmodium falciparum [1] is 11 µM; in the test on Plasmodium falciparum [2], greater than 20 µM.
`CCc1ccccc1[C@H]1C[C@]2(C)CCO[C@@H]2OO1` (racemic): the half-maximal inhibitory concentration (IC50) in the test with Plasmodium falciparum [1] was 7.7 µM; in the test with Plasmodium falciparum [2] it was 15 µM.
The like results for `CC(C)Cc1ccccc1[C@H]1C[C@]2(C)CCO[C@@H]2OO1` (racemic) were, in that order, 5.7 µM and 13 µM.
For `C[C@@]12CCO[C@@H]1OO[C@H](c1ccccc1)C2` (racemic), the IC50 in the test with Plasmodium falciparum [1] and in the test with Plasmodium falciparum [2] was greater than 20 µM in each case.
Consider `Cc1ccccc1[C@@H]1C[C@]2(C)CCO[C@@H]2OO1` (racemic), for which the IC50 with Plasmodium falciparum [1] and in the test on Plasmodium falciparum [2] was greater than 20 µM each time.
Regarding `CCc1ccccc1[C@@H]1C[C@]2(C)CCO[C@@H]2OO1` (racemic), the half-inhibitory concentration (IC50) with Plasmodium falciparum [1] and in the test with Plasmodium falciparum [2] was greater than 20 µM in each case.
For the compound `CC1(C)C[C@@H]2CCO[C@@H]2OO1` (relative stereo), the IC50 in the test with Plasmodium falciparum [1] and in the test on Plasmodium falciparum [2] was greater than 10 µM throughout.

The values are drawn from ChEMBL document CHEMBL1817607, “Synthesis and antiplasmodial activity of bicyclic dioxanes as simplified dihydroplakortin analogues” (J Med Chem, 2011).
